From PMC9582434, “Ryanodine receptor-active non-dioxin-like polychlorinated biphenyls cause neurobehavioral deficits in larval zebrafish” (Frontiers in Toxicology, 2022)

Legend:
[1] = PCB body burden in larvae at 5 dpf by gas chromatography; format: in vivo, zebrafish; details: for % uptake (measured uptake/theoretical uptake × 100): averaged across 0.1, 1 and 10 µM, larvae at 5 dpf; for larval body burden relative to the other tested PCBs: exposure 6 hpf to 5 dpf
Procedure: PCB body burden was assessed at 5 dpf by pressurized liquid extraction Dionex ASE200 system (Thermo Scientific, Sunnyvale, CA, United States) ([Wu et al., 2015]). Briefly, zebrafish larvae samples (n = 36–51 per sample) were mixed with diatomaceous earth (2 g) and placed in an extraction cell (33 ml) containing Florisil (60–100 mesh, 12 g, Fisher Scientific, Fair Lawn, NJ, United States). PCB 117 (100 ng) was added to each sample as surrogate recovery standard, and the cells were extracted with hexane-acetone (1:1, v/v) at 100°C and 1,500 psi (10 MPa) with preheat equilibration for 6 min, 35% of cell flush volume and 1 static cycle of 5 min. Method blanks containing only Florisil and diatomaceous earth and sample blanks with naïve (unexposed) and/or DMSO-exposed zebrafish larvae were extracted in parallel with each sample set. The extracts were concentrated to approximately 0.75 ml using a Turbo Vap II (Biotage, Charlotte, NC, United States) and transferred to glass tubes. Samples were further cleaned up, as described previously, to remove sulfur and other impurities ([Kania-Korwel et al., 2007]). All samples were spiked with PCB 204 (100 ng) as internal standard (volume corrector) prior to gas chromatographic analysis.
Analysis of PCBs was performed in the splitless mode on an Agilent 7890 gas chromatograph equipped with a ^63Ni micro electron capture detector (µECD) and a SPB-1 capillary column (length, 60 m; inner diameter, 250 μm; and 0.25 µm film thickness; Supelco, St. Louis, MO, United States) ([Wu et al., 2013]). The following temperature program was used based on a published method ([Kania-Korwel et al., 2011]): hold at 80°C for 1 min, 20°C/min to 215°C, then 0.1°C/min to 219.5°C, and 20°C/min to 280°C, then hold at 280°C for 3 min. A constant helium flow rate of 1 ml/min was used for all analyses. The injector and detector temperatures were 250°C and 300°C, respectively. The ^63Ni-μECD used for the PCB analysis was linear up to concentrations of 1,000 ng/ml for all analytes investigated (R ^2 > 0.999). The recovery of PCB 117 was 83 ± 7% (range: 71–97%). A detailed summary of the limits of detection, limits of quantification, and background levels of the analyzed PCBs is presented in Supplementary Table S1.
The neurotoxic potential of the congeners tested in this study were ranked based on the three endpoints measured in this study: RYR binding, behavior, and body burden. Congeners were ranked relative to each other for each individual endpoint from 1 (highest) to 6 (lowest), and then the three scores for each congener averaged to obtain an overall relative ranking for each congener. Ranking for RYR activation was based on EC2X values and their relative comparisons. Behavior ranking represents the total change from control for each congener across all epochs (L1, D1, L2, and D2) and all days (3, 4, and 5 dpf) tested. AUC values were normalized to the appropriate DMSO control (AUC value/DMSO). Each value was then subtracted from 1 to determine the deviation from the control values [1 − (AUC value/DMSO)]. Absolute values were combined for all concentrations of each congener across all time points (epochs and testing days). PCB body burden was ranked as the percentage uptake using the following calculation: (uptake/total PCB) × 100, where, the uptake values were the measured PCB levels in the samples, and the total PCB values were calculated using the exposure concentration (0.1, 1, or 10 μM) and volume (200 μl). The resulting values were averaged across the three assayed concentrations and rounded to the closest integer to obtain the final ranking order.

RYR = test system: RYR; parameters: method as in Pessah et al., 2006; Holland et al., 2017a; details: ref Pessah et al., 2006; Holland et al., 2017a; cited from earlier work
[2] = Enantioselective gas chromatographic analysis of PCB residues in larvae; format: in vivo, zebrafish; details: residues in exposed larvae; no significant atropisomeric enrichment
Procedure: The enantioselective analysis of PCB 84 was performed on a 6890 Agilent gas chromatograph equipped with a ^63Ni-µECD detector and CP-Chiralsil-Dex CB capillary column with cyclodextrin directly bonded to dimethylpolysiloxane (25 m length, 0.25 mm inner diameter, 0.25 µm film thickness; Varian, Palo Alto, CA, United States). The temperature program was as follows ([Kania-Korwel et al., 2006]): starting temperature 50°C, hold for 1 min, 10°C/min to 140°C for 100 min, then 10°C/min to 200°C for 5 min. The enantioselective analysis of PCB 95 was performed on a 7890 Agilent gas chromatograph equipped with a ^63Ni-µECD detector and Chiraldex B-DM (BDM) capillary column (length, 30 m × inner diameter, 250 μm × 0.12 µm film thickness, Supelco; St. Louis, MO, United States). The following temperature program was used ([Uwimana et al., 2016]): starting temperature 50°C for 1 min, 10°C/min to 160°C for 90 min, then 10°C/min to 200°C for 10 min. For both instruments, the injector was operated in the splitless mode at 250°C, and the detector temperature was 250°C. […] Enantiomer fractions (EF) were calculated with the drop valley method ([Asher et al., 2009]; [Uwimana et al., 2016]) as EF = Area E1/(Area E1 + Area E2), were Area E1 and Area E2 denote the peak area of the first and second eluting atropisomer, respectively. […]

larval zebrafish = details: 2020, cited from earlier work

| SMILES | % uptake (measured uptake/theoretical uptake × 100) [1] | in vitro potency at the RYR (in words) (RYR) | average EF (enantiomer fraction) values [2] | malformations after developmental exposure (larval zebrafish; exposure commenced shortly after fertilization, ref Ranasinghe et al.) | larval body burden relative to the other tested PCBs [1] | malformations or mortality (larval zebrafish; larval zebrafish younger than 7 dpf, static exposure, up to 10 μM, ref Aluru et al.) |
| --- | --- | --- | --- | --- | --- | --- |
| Clc1ccc(-c2ccc(Cl)cc2Cl)cc1 [PCB 28] | 4.5% | negligible | – | – | – | – |
| Clc1ccc(-c2ccc(Cl)c(Cl)c2)c(Cl)c1 [PCB 66] | 5.6% | negligible | – | – | – | – |
| Clc1cccc(-c2c(Cl)ccc(Cl)c2Cl)c1Cl [PCB 84] | 9.2% | potent | 0.50 ± 0.01 | – | – | – |
| Clc1ccc(Cl)c(-c2c(Cl)ccc(Cl)c2Cl)c1 [PCB 95, 2,2',3,5',6-pentachlorobiphenyl] | 7.4% | potent | 0.50 ± 0.01 | caused malformations | – | – |
| Clc1cc(Cl)c(-c2ccc(Cl)c(Cl)c2Cl)cc1Cl [PCB 138] | 13.8% | moderate | – | – | highest | – |
| Clc1cc(Cl)c(-c2cc(Cl)c(Cl)cc2Cl)cc1Cl [PCB 153, 2,2',4,4',5,5'-Hexachlorobiphenyl] | 1.4% | moderate | – | – | lowest | no malformations or mortality |
